Source: the NIST ThermoML archive (doi:10.1016/j.jct.2018.10.006)

Experiment: molar heat capacity at constant pressure
Settings: 101.33 kPa, Crystal 1, DSC

O=P([O-])([O-])[O-].[Cs+].[Ni+2] [cesium nickel monophosphate]
Settings	molar heat capacity at constant pressure [J/K/mol]
480.8 K	176.27
482.8 K	176.27
484.8 K	176.27
486.8 K	176.27
488.8 K	176.27
490 K	176.18
490.8 K	177.1
492.8 K	177.1
494.8 K	177.1
496.8 K	177.1
498.8 K	177.1
500 K	176.77
500.8 K	177.1
502.8 K	177.1
504.8 K	177.1
506.8 K	177.1
508.8 K	177.1
510 K	177.26
510.8 K	177.1
512.8 K	177.1
514.8 K	177.1
516.8 K	177.1
518.8 K	177.1
520 K	177.76
520.8 K	177.93
522.8 K	177.93
524.8 K	177.93
526.8 K	177.93
528.8 K	177.93
530 K	178.26
530.8 K	177.93
532.8 K	177.93
534.8 K	177.93
536.8 K	177.93
538.8 K	178.76
540 K	178.76
540.8 K	178.76
542.8 K	178.76
544.8 K	178.76
546.8 K	178.76
548.8 K	178.76
550 K	179.18
550.8 K	178.76
552.8 K	178.76
554.8 K	179.59
556.8 K	179.59
558.8 K	179.59
560 K	179.59
560.8 K	179.59
562.8 K	179.59
564.8 K	179.59
566.8 K	180.42
568.8 K	180.42
570 K	180.01
570.8 K	180.42
572.8 K	180.42
574.8 K	180.42
576.8 K	180.42
578.8 K	180.42
580 K	180.34
580.8 K	180.42
582.8 K	180.42
584.8 K	180.42
586.8 K	180.42
588.8 K	180.42
590 K	180.76
590.8 K	181.26
592.8 K	181.26
594.8 K	181.26
596.8 K	181.26
598.8 K	181.26
600 K	181.26
600.8 K	181.26
602.8 K	181.26
604.8 K	181.26
606.8 K	181.26
608.8 K	182.09
610 K	181.84
610.8 K	182.09
612.8 K	182.09
614.8 K	182.09
616.8 K	182.09
618.8 K	182.09
620 K	182.5
620.8 K	182.09
622.8 K	182.92
624.8 K	182.92
626.8 K	182.92
628.8 K	182.92
630 K	183.25
630.8 K	182.92
632.8 K	183.75
634.8 K	183.75
636.8 K	183.75
638.8 K	184.58
640 K	184.33
640.8 K	184.58
642.8 K	184.58
644.8 K	184.58
646.8 K	185.41
648.8 K	185.41
650 K	185.58
